From publication PMC6413183, “Regulatory Aspects of the Vacuolar CAT2 Arginine Transporter of S. lycopersicum: Role of Osmotic Pressure and Cations” (International Journal of Molecular Sciences, 2019)
Like-named read-outs stand apart in the source and are kept apart here.

What was measured:
SlCAT2 [1] = experiment: [3H]Arg uptake in proteoliposomes reconstituted with recombinant SlCAT2; format: biochemical, S. lycopersicum; conditions: for effect of intraliposomal cations on [3H]Arg uptake: cation in internal compartment at about vacuolar concentration, K+ and Na+ versus no osmolytes, extent equal to isoosmolar sucrose (osmotic effect); for inhibition of [3H]Arg uptake by external divalent cations / inhibition of [3H]Arg uptake by external monovalent cations: extraliposomal cation at about cytosolic concentration; for inhibition of [3H]Arg uptake by external divalent cations: with respect to sucrose (1.2 mM) used as control of osmolality; for inhibition of [3H]Arg uptake by external monovalent cations: with respect to 40 mM sucrose used as control of osmolality; for effect of external K+ salts on [3H]Arg uptake: salt in extraliposomal compartment, KCl compared to K-gluconate
Method: The desalted SlCAT2 was reconstituted by removing the detergent from mixed micelles containing detergent, protein, and phospholipids by incubation with Amberlite XAD-4 in a batch-wise procedure, as previously described. The composition of the initial mixture used for reconstitution (except when differently indicated) was 400 µL of the purified protein (6 µg protein in 0.1% DDM), 80 µL of 10 % TX-100, 120 µL of 10% egg yolk phospholipids in the form of sonicated liposomes prepared as previously described, 15 mM ATP, and 10 mM Tris Hepes pH 7.5 (except where differently indicated) in a final volume of 700 µL. After vortexing, this mixture was incubated with 0.5 g Amberlite XAD-4 under rotatory stirring (1200 rpm) at 23 °C for 40 min in a batchwise procedure as previously pointed out.
Five-hundred-and-fifty microliters of proteoliposomes were passed through a Sephadex G-75 column (0.7 cm diameter × 15 cm height) preequilibrated with 10 mM Tris Hepes pH 7.5. From these columns, 550 µL of proteoliposomes were collected and divided into aliquots (samples) of 100 µL. Transport was started by adding 100 µM of [^3H]Arg to the proteoliposome samples. The pH gradient experiments were performed reconstituting protein in liposome with 10 mM Tris Hepes pH 5.5. After incubation with Amberlite XAD 4 resin, 550 µL of proteoliposomes were passed through a Sephadex G-75 column preequilibrated with 0.5 mM Tris Hepes pH 5.5.
The changes in external/internal osmolality were performed by adding in the extraliposomal/intraliposomal compartment appropriate concentrations of sucrose as indicated in the figure legend.
Transport reaction was stopped by adding 5 mM Pyridoxal Phosphate (PLP); according to the stop inhibitor method, the same inhibitor was added at time zero to control samples (blank). The initial rate was measured in 10 min, i.e., in the linear range of time courses as previously described. The PLP insensitive radioactivity associated with the control samples (blank) was less than 30% with respect to the PLP-sensitive arginine transport.
The experimental values were corrected by subtracting the respective controls. Specific activity was calculated and expressed as nmol/mg at a given time of measurement or as nmol/(mg × min) in the case of initial rate measurement. For calculation of initial rate, transport was measured in 10 min, i.e., within the initial linear part of the uptake. Grafit 5.0.13 software (Erithacus Software, West Sussex, UK) was used to derive IC50 values in inhibition assays and to measure transport rate by first-order rate equation and by a single exponential decay with offset.

SlCAT2 [2] = experiment: [3H]Arg efflux from preloaded proteoliposomes reconstituted with SlCAT2; format: biochemical, S. lycopersicum; conditions: 0.45 mM Mg2+ in the extraliposomal compartment; proteoliposomes preloaded with 100 µM [3H]Arg
Method: Figure 9 Efflux from proteoliposomes reconstituted with SlCAT2. SlCAT2 was purified and reconstituted in proteoliposomes as described in Section 4.4. Arginine efflux was measured at the indicated time, as described in Section 4.5. Internal residual radioactivity was measured as percent with respect to control (time 0), in the absence (open circle) or in the presence (closed circle) of 0.45 mM Mg^2+ in the extraliposomal compartment. Data are plotted using the single exponential equation with offset as described in Section 4.5. Results are the means ± SD from three experiments.
For efflux measurements, proteoliposomes containing 15 mM ATP were preloaded by incubation with 100 µM [^3H]Arg (1 µCi/mL) for 90 min [64]. In both uptake and efflux, transport was stopped by passing 100 µL of each sample through a Sephadex G-75 column (0.6 cm diameter × 8 cm height) in order to separate the external from the internal radioactivity. Samples were eluted with 1 mL 50 mM NaCl and collected in 4 mL of scintillation mixture, vortexed and counted.
The experimental values were corrected by subtracting the respective controls. Specific activity was calculated and expressed as nmol/mg at a given time of measurement or as nmol/(mg × min) in the case of initial rate measurement. For calculation of initial rate, transport was measured in 10 min, i.e., within the initial linear part of the uptake. […]

[3] = cation in extraliposomal compartment (NaCl, K-gluconate, NH4Cl, MgCl2), 100 μM [3H]Arg, 20 min, proteoliposomes containing 200 mM sucrose and 15 mM ATP, pH 7.5, read-out: IC50 for inhibition of [3H]Arg uptake by external cations

In the case of `[Ca+2].[Cl-].[Cl-]` [Ca^2+], the “effect of intraliposomal cations on [3H]Arg uptake” value (“effect of intraliposomal cations” below) (SlCAT2 [1]; 15 mM ATP, pH 7.5, 20 min) is reported as “did not exert any significant effect” and the “inhibition of [3H]Arg uptake by external divalent cations” value (SlCAT2 [1]; 20 min, pH 7.5) is reported as “did not exert a significant effect”.

For `Cl.N` [NH4^+], the IC50 (SlCAT2 [1]; [3]) was 5.7 ± 1.49 mM, the “effect of intraliposomal cations” value (SlCAT2 [1]; 15 mM ATP, pH 7.5, 20 min) was “did not exert any significant effect” and the “inhibition of [3H]Arg uptake by external monovalent cations” value (SlCAT2 [1]; 20 min, pH 7.5) was ~ 40%.

In the case of `[Cl-].[Na+]` [Na^+], the IC50 (SlCAT2 [1]; [3]) is reported as 10.9 ± 0.8 mM, the “effect of intraliposomal cations” value (SlCAT2 [1]; 15 mM ATP, pH 7.5, 20 min) is reported as “activation” and the “inhibition of [3H]Arg uptake by external monovalent cations” value (SlCAT2 [1]; 20 min, pH 7.5) is reported as ~ 40%.

In the case of `[K+]` [K^+], the IC50 (SlCAT2 [1]; [3]) is reported as 11.3 ± 1.2 mM, the “effect of intraliposomal cations” value (SlCAT2 [1]; 15 mM ATP, pH 7.5, 20 min) is reported as “activation” and the “inhibition of [3H]Arg uptake by external monovalent cations” value (SlCAT2 [1]; 20 min, pH 7.5) is reported as ~ 40%.

With `O=C([O-])[C@H](O)[C@@H](O)[C@H](O)[C@H](O)CO.[K+]` [K-gluconate] the “effect of external K+ salts on [3H]Arg uptake” value (SlCAT2 [1]; 20 min, pH 7.5) was “no difference between the two K^+ salts”.

With `OC[C@H]1O[C@@](CO)(O[C@H]2O[C@H](CO)[C@@H](O)[C@H](O)[C@H]2O)[C@@H](O)[C@@H]1O` [sucrose] the “effect of 1.2 mM external sucrose on transport activity” value (SlCAT2 [1]; 1.2 mM sucrose external, with respect to control without sucrose) was “no difference of activity”, the “effect of 40 mM external sucrose on transport activity” value (SlCAT2 [1]; 40 mM sucrose external, with respect to the condition without sucrose) was “caused a reduction of transport activity” and the “[3H]Arg uptake as percent of the control with external sucrose” value (SlCAT2 [1]; 50 mM sucrose in external compartment, 200 mM sucrose and 15 mM ATP inside, pH 7.5, 10 min) was “about 45%”. For the same compound, the “transport rate of [3H]Arg uptake with external sucrose” value (SlCAT2 [1]; 50 mM sucrose in external compartment, control without external sucrose 0.93 ± 0.2, 10 min, pH 7.5) was 0.51 ± 0.18 nmol/mg/min and the “change of [3H]Arg uptake with intraliposomal sucrose” value (SlCAT2 [1]; intraliposomal osmolality 50 to 175 mOsmol, plateau up to 225 mOsmol, 15 mM ATP, pH 7.5, 10 min) was “increased approximately three times”.

`[Cl-].[K+]` [KCl] was tested, and the “effect of external K+ salts on [3H]Arg uptake” value (SlCAT2 [1]; 20 min, pH 7.5) was “inhibited”.

`Nc1ncnc2c1ncn2[C@@H]1O[C@H](COP(=O)(O)OP(=O)([O-])OP(=O)([O-])O)[C@@H](O)[C@H]1O.[Na+].[Na+]` [ATP] was tested, and the “effect of extraliposomal ATP on [3H]Arg uptake” value (SlCAT2 [1]; ATP (Na+)2 salt added externally, partially due to Na+ and osmolality, 200 mM sucrose and 15 mM ATP inside, pH 7.5, 20 min) was “inhibited”.

`[Cl-].[Cl-].[Mg+2]` [Mg^2+] was tested, and the “effect of external Mg2+ on [3H]Arg efflux” value (SlCAT2 [2]) was “no, or only a slight, effect”, the “inhibition of [3H]Arg uptake by intraliposomal Mg2+ in the absence of internal ATP” value (SlCAT2 [1]; Mg2+ in internal compartment, 200 mM sucrose, no intraliposomal ATP, 20 min) was “virtually disappeared” and the IC50 (SlCAT2 [1]; Mg2+ in internal compartment, with 200 mM sucrose and 15 mM intraliposomal ATP, pH 7.5, 20 min, read-out: IC50 for inhibition of [3H]Arg uptake by intraliposomal Mg2+) was 23 ± 9.9 mM. The IC50 (SlCAT2 [1]; [3]) was 0.42 ± 0.18 mM, the “effect of intraliposomal cations” value (SlCAT2 [1]; 15 mM ATP, pH 7.5, 20 min) was “strong inhibitory effect” and the “inhibition of [3H]Arg uptake by external divalent cations” value (SlCAT2 [1]; 20 min, pH 7.5) was 33%.

`CC(C)CCC[C@@H](C)[C@H]1CC[C@H]2[C@@H]3CC=C4C[C@@H](OC(=O)CCC(=O)O)CC[C@]4(C)[C@H]3CC[C@]12C` [CHS, Cholesteryl hemisuccinate, reference compound] was tested, and the “stimulation of [3H]Arg uptake by CHS in the proteoliposomal membrane” value (SlCAT2 [1]; 1 mg of CHS in 1 mL proteoliposomes, corresponding to 10% of total lipid composition, 20 min, pH 7.5) was “up to 30%”.
